Experimental data taken from patent publication US12076411B2, “Anti-HER2 antibody-maytansine conjugates and methods of use thereof” (priority 2014, dated 2024).

Assays:
NCI-N87 cells [1] = assay: In vitro cytotoxicity, 6 day assay, Cell Titer-Glo (Example 2); assay type: cell-based; details: Homo sapiens, 144 h; NCI-N87, 6 day assay; antibody concentrations except for the free drug
Experimental: (§1) NCI-N87 cells, which overexpress HER2, were used as targets for in vitro cytotoxicity in a 6 day assay.
The HER2-positive breast carcinoma cell line, NCI-N87, was obtained from ATCC and maintained in RPMI-1640 medium (Cellgro) supplemented with 10% fetal bovine serum (Invitrogen) and Glutamax (Invitrogen). 24 h prior to plating, cells were passaged to ensure log-phase growth. On the day of plating, 5000 cells/well were seeded onto 96-well plates in 90 μL normal growth medium supplemented with 10 IU penicillin and 10 μg/mL streptomycin (Cellgro). Cells were treated at various concentrations with 10 μL of diluted analytes, and the plates were incubated at 37° C. in an atmosphere of 5% CO2. After 6 d, 100 μL/well of Cell Titer-Glo reagent (Promega) was added, and luminescence was measured using a Molecular Devices SpectraMax M5 plate reader. GraphPad Prism software was used for data analysis, including IC50 calculations.

NCI-N87 cells [2] = assay: In vitro cytotoxicity, 6 day assay, Cell Titer-Glo (Example 1); details: Homo sapiens, NCI-N87, 144 h
Experimental: as §1
24 h prior to plating, cells were passaged to ensure log-phase growth. On the day of plating, 5000 cells/well were seeded onto 96-well plates in 90 μL normal growth medium supplemented with 10 IU penicillin and 10 μg/mL streptomycin (Cellgro). Cells were treated at various concentrations with 10 μL of diluted analytes, and the plates were incubated at 37° C. in an atmosphere of 5% CO2. After 6 d, 100 μL/well of Cell Titer-Glo reagent (Promega, Madison, WI) was added, and luminescence was measured using a Molecular Devices SpectraMax M5 plate reader. GraphPad Prism software was used for data analysis, including IC50 calculations.

NCI-N87 cells [3] = assay: In vitro cytotoxicity, 6 d, Cell Titer-Glo (Example 5); assay type: cell-based; details: Homo sapiens, 144 h; NCI-N87, 6 d
Experimental: The HER2-positive gastric carcinoma cell line, NCI-N87, was obtained from ATCC and maintained in RPMI-1640 medium (Cellgro) supplemented with 10% fetal bovine serum (Invitrogen) and Glutamax (Invitrogen). 24 h prior to plating, cells were passaged to ensure log-phase growth. On the day of plating, 5000 cells/well were seeded onto 96-well plates in 90 μL normal growth medium supplemented with 10 IU penicillin and 10 μg/mL streptomycin (Cellgro). […] After 6 d, 100 μL/well of Cell Titer-Glo reagent (Promega) was added, and luminescence was measured using a Molecular Devices SpectraMax M5 plate reader. GraphPad Prism software was used for data analysis.

SMILES: COc1cc2cc(c1Cl)N(C)C(=O)C[C@H](OC(=O)[C@H](C)N(C)C(C)=O)[C@]1(C)O[C@H]1[C@H](C)[C@@H]1C[C@@](O)(NC(=O)O1)[C@H](OC)/C=C/C=C(\C)C2 [free maytansine, maytansine]
- IC50 (NCI-N87 cells [1]): 0.25 nM
- IC50 (NCI-N87 cells [2]): 0.214 nM
- IC50 (NCI-N87 cells [3]): 0.35 nM
